Experimental data: patent US10023587B2, “Oxabicycloheptanes and oxabicycloheptenes, their preparation and use” (LIXTE BIOTECHNOLOGY, INC., priority 2007, dated 2018)

Key:
[1] = tested on: 23 clinical fungal isolates; assay: Antifungal susceptibility testing, whole panel of 23 isolates; format: cell-based; conditions: at the levels tested, 0.125-64 μg/ml
Description: Anti-fungal testing was completed with a common lot for compounds 100 and 102.
A 10 mg portion of each powder was weighed out and added to 1 ml of sterile distilled water for compound 100 and DMSO for compound 102. The resulting concentration of […] was diluted to a working concentration of 640 μg/ml for each compound. All subsequent dilutions were also made using the respective diluents. Final testing concentrations ranged from 0.125-64 μg/ml.
A total of 23 isolates were tested to include 3 Candida albicans, 3 Candida glabrata, 3 Cryptococcus neoformans, 3 Aspergillus fumigatus, 3 Rhizopus oryzae, 3, Fusarium solani, 3 Pseudallescheria boydii, and 2 […] rubrum. All isolates were clinical isolates submitted to the Fungus Testing Laboratory for evaluation. Antifungal susceptibility testing was accomplished according to the methods outlined in the National Committee for Clinical Laboratory Standards, M-27A2, Reference Method for Broth Dilution Antifungal Susceptibility Testing of Yeasts; Approved Standard, and M38-A “Reference Method for Broth Dilution Antifungal Susceptibility Testing of Conidium-Forming Filamentous Fungi; Approved Standard”. This includes testing in RPMI-1640 with glutamine and without bicarbonate, an inoculum size of 0.5-2.5×10^3 for yeasts or 1-5×10^4 for moulds, and incubation at 35° C. for 24 and 48 hours.

[2] = tested on: GBM cell line U373; assay: cells; format: cell-based, human; conditions: for Percent of Control, Observed: U373 (Table 4)
Description: To observe the effects Compound 100 in combination with retinoic acids, Compound 100 was combined with all-trans retinoic acid. […] The total number of cells is counted in the triplicate cultures at each dose and in controls after 7 days and the average number of cells and the standard deviation is determined.
The amount of inhibition of GBM cell growth is expressed as the proportion of the number of cells in the experimental dishes compared to the number of cells in control dishes containing only the drug vehicle and culture medium. The average percent of control is plotted and bracketed by one standard deviation calculated from the triplicate measurements.
Synergism (potentiation) of the inhibitory activity of two drugs in combination is said to be present when the percent survival in the presence of two drugs is less than the product of the percent survivals of the two drugs used alone at the same doses in the combination.

[3] = Stability at acid pH; format: physicochemical
[4] = tested on: GBM cell line U87; assay: U87 xenograft tumor growth in SCID mice; format: in vivo; conditions: subcutaneous in SCID mice, ip daily for 20 days (FIG. 17)
Description: For in vivo experiments, subcutaneously implanted tumor cells are allowed to grow over 7 days to a size of 5-7 mm. On day 7, drug administration is begun ip daily for 20 days. The maximum perpendicular diameters of the tumor masses are measured every 2 to 5 days. On the 21st day after initiation of treatment, the animals are sacrificed and dissected free of the subcutaneous tissues and measured.

## CN1CCN(C(=O)C2C(C(=O)O)[C@H]3CC[C@@H]2O3)CC1 (stereo partly drawn) [Compound 100, Endothall 4-Methylpiperazine Monoamide]
[1]
  Antifungal activity, all isolates (in words): no activity
[2]; Compound 100 1 μM
  Percent of Control, Observed: 97.9 +/− 1.0% of Control
[2]; Compound 100 5 μM
  Percent of Control, Observed: 52.5 +/− 2.9% of Control
[2]; Homo sapiens, U373 MG, 168 h, Compound 100 1 uM, U373, 7 days (Table 3), read-out: Percent of Control, Observed
  activity at 1 µM: 78%
[3]
  Stability at acid pH (in words): stable at acid pH
[4]
  Effect on U87 xenograft tumor growth (in words): supresses the growth
